Test results taken from publication PMC11375011, “Inducible auto-phosphorylation regulates a widespread family of nucleotidyltransferase toxins” (Nature Communications, 2024).

Experiments:
[1] = molecular target: T1, MenA1:MenT1 (MenT1 in the presence of MenA1) (Mycobacterium tuberculosis, UniProt L7N686)
T1 construct: gene Rv0078A

[2] = molecular target: T1, MenA1:MenT1 (MenT1 in the presence of MenA1); remark: listed apart in the source

SMILES	phosphorylation assay of MenT1 [1]	ΔTm [2]
Nc1ncnc2c1ncn2[C@@H]1O[C@H](COP(=O)(O)OP(=O)(O)O)[C@@H](O)[C@H]1O [ADP]	Co-incubation of MenT1, MenA1 and MgCl2 with ADP, but not AMP or AMP-PNP, supported phosphorylation	
Nc1ncnc2c1ncn2[C@@H]1O[C@H](COP(=O)(O)OP(=O)(O)OP(=O)(O)O)[C@@H](O)[C@H]1O [ATP]		no significant differences between mean ΔTm values were observed when incubated with any
Nc1ccn([C@@H]2O[C@H](COP(=O)(O)OP(=O)(O)OP(=O)(O)O)[C@@H](O)[C@H]2O)c(=O)n1 [CTP]		no significant differences between mean ΔTm values were observed when incubated with any
Nc1nc2c(ncn2[C@@H]2O[C@H](COP(=O)(O)OP(=O)(O)OP(=O)(O)O)[C@@H](O)[C@H]2O)c(=O)[nH]1 [GTP]		no significant differences between mean ΔTm values were observed when incubated with any
O=c1ccn([C@@H]2O[C@H](COP(=O)(O)OP(=O)(O)OP(=O)(O)O)[C@@H](O)[C@H]2O)c(=O)[nH]1 [UTP]		no significant differences between mean ΔTm values were observed when incubated with any
